Drawing on patent US11021446B2 (NOVARTIS AG, priority 2013, dated 2021), this text covers EC50 for 24 compounds.

Molecules are shown by their SMILES.

The experiment addresses T1, human Farnesoid X Receptor (FXR) ligand binding domain (GST-FXR LBD) (Homo sapiens, UniProt Q96RI1).
T1 construct: purchased Invitrogen
T1 sequence (Q96RI1 193-472 isoform Q96RI1-2): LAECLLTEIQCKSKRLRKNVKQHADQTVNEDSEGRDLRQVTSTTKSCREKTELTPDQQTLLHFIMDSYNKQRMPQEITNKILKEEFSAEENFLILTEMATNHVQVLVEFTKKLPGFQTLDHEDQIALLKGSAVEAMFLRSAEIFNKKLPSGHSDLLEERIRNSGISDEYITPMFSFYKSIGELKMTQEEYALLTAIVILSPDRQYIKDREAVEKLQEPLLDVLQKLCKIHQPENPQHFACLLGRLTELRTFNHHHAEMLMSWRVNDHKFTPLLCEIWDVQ
Put plainly: Human GST-FXR LBD co-activator interaction assay (FXR HTRF assay). The settings on record: GST-FXR LBD interaction with biotin-labeled SRC-1 peptide, FRET, response relative to GW4064, read-out: FXR coactivator interaction assay (HTRF). Type of experiment: biochemical. The source says:
Human GST-FXR LBD Co-Activator Interaction Assay
The FXR HTRF assay is a biochemical assay measuring the interaction between FXR and a coactivator protein (SRC1). The ligand-induced interaction with a coactivator protein is a critical step in transcriptional activation by FXR. Thus, this is an assay designed to measure FXR agonist activity of the test compounds.
Recombinant human Farnesoid X Receptor (FXR) ligand binding domain (amino acids 193-472) fused to glutathione S-transferase (GST) purified protein (GST-FXR LBD) was purchased (Invitrogen). The ligand-dependent interaction between GST-FXR LBD and a peptide derived from Steroid Receptor Coactivator-1 (SRC-1) was monitored by Fluorescence Resonance Energy Transfer (FRET). […] Test compounds (in DMSO solution) and detection reagents (anti-GST-Cryptate labeled antibody and Streptavidin-XL665 conjugate; CisBio) were added in assay buffer containing 50 mM KF. Plates are incubated at room temperature in the dark for 2.5 hrs before reading on an Envision (PerkinElmer) at 665 nm and 590 nm. The HTRF assay results were calculated from the 665 nm/590 nm ratio (ratio=(A665 nm/A590 nm)×10^4) and expressed in Delta F %=(Ratiosample−Rationegative)/Rationegative×100.
A negative control (without Streptavidin-XL665) was run with each assay and represented the background fluorescence. A reference FXR agonist, (E)-3-(2-chloro-4-((3-(2,6-dichlorophenyl)-5-isopropylisoxazol-4-yl)methoxy)styryl)benzoic acid (Compound GW4064), was included in each experiment as positive control. The efficacy of each test compound was compared to that of GW4064. At each concentration, the relative activity of the test compound was expressed as Response %=(Rsample−RDMSO)/(Rpositive−RDMSO), where Rsample is the HTRF response (expressed in Delta F %) for the test compound, Rpositive is the maximal response for GW4064 at saturating concentrations, and RDMSO is the response for DMSO control. The EC50 values were calculated using GraphPad Prism (GraphPad Software) using non-linear regression curve fit (log(agonist) vs. response-variable slope (four parameters)).
A general note: TR-FRET usually uses a lanthanide donor and a delayed reading to cut background.
For the compound `Cc1cccc(CN(Cc2ccc(C(=O)O)cc2)C(=O)c2nn(C)c3c2COc2ccc(Cl)cc2-3)c1` [Compound 80, 4-((8-chloro-1-methyl-N-(3-methylbenzyl)-1,4-dihydrochromeno[4,3-c]pyrazole-3-carboxamido)methyl)benzoic acid], the EC50 was determined as 16 nM. For the compound `Cc1nc(C(=O)O)ccc1CN(Cc1cccc(F)c1)C(=O)c1nn(C)c2c1COc1ccc(Cl)cc1-2` [Compound 99, 5-((8-chloro-N-(3-fluorobenzyl)-1-methyl-1,4-dihydrochromeno[4,3-c]pyrazole-3-carboxamido)methyl)-6-methylpicolinic acid], the EC50 was 29 nM. The value for `Cn1nc(C(=O)N(CCOc2ccc(C(=O)O)cc2F)Cc2cccc(F)c2)c2c1-c1cc(F)ccc1OC2` [Compound 58, 3-fluoro-4-(2-(8-fluoro-N-(3-fluorobenzyl)-1-methyl-1,4-dihydrochromeno[4,3-c]pyrazole-3-carboxamido)ethoxy)benzoic acid] was 22 nM.

As for `Cn1nc(C(=O)N(CCNc2cc(C(=O)O)ccc2F)Cc2cccc(F)c2)c2c1-c1cc(Cl)ccc1OC2` [Compound 65, 3-((2-(8-chloro-N-(3-fluorobenzyl)-1-methyl-1,4-dihydrochromeno[4,3-c]pyrazole-3-carboxamido)ethyl)amino)-4-fluorobenzoic Acid], the EC50 was 7 nM.

For `Cn1nc(C(=O)N(CC(=O)Nc2cc(F)cc(C(=O)O)c2)Cc2ccccc2F)c2c1-c1cc(Cl)ccc1OC2` [Compound 38, 3-(2-(8-chloro-N-(2-fluorobenzyl)-1-methyl-1,4-dihydrochromeno[4,3-c]pyrazole-3-carboxamido)acetamido)-5-fluorobenzoic Acid], the EC50 amounted to 2.6 nM.

With `Cn1nc(C(=O)N(Cc2ccccc2)Cc2ccc(C(=O)O)cc2)c2c1-c1cc(Cl)ccc1OC2` [Compound 75, 4-((N-benzyl-8-chloro-1-methyl-1,4-dihydrochromeno[4,3-c]pyrazole-3-carboxamido)methyl)benzoic Acid], the EC50 worked out at 6 nM. The result for `Cn1nc(C(=O)N(Cc2ccccc2)Cc2ccc(C(=O)O)c(F)c2)c2c1-c1cc(Cl)ccc1OC2` [Compound 91, 4-((N-benzyl-8-chloro-1-methyl-1,4-dihydrochromeno[4,3-c]pyrazole-3-carboxamido)methyl)-2-fluorobenzoic acid] reads 6.5 nM. The result for `Cc1cccc(CN(CC(=O)Nc2cc(C(=O)O)ccc2F)C(=O)c2nn(C)c3c2COc2ccccc2-3)c1` [Compound 4, 4-fluoro-3-(2-(1-methyl-N-(3-methylbenzyl)-1,4-dihydrochromeno[4,3-c]pyrazole-3-carboxamido)acetamido)benzoic acid] reads 0.75 nM; that for `Cc1cccc(CN(Cc2ccc(C(=O)O)cc2F)C(=O)c2nn(C)c3c2COc2ccc(Cl)cc2-3)c1` [Compound 84, 4-((8-chloro-1-methyl-N-(3-methylbenzyl)-1,4-dihydrochromeno[4,3-c]pyrazole-3-carboxamido)methyl)-3-fluorobenzoic acid], 18 nM; that for `Cn1nc(C(=O)N(CCOc2c(F)cc(C(=O)O)cc2F)Cc2ccccc2F)c2c1-c1cc(Cl)ccc1OC2` [Compound 50, 4-(2-(8-chloro-N-(2-fluorobenzyl)-1-methyl-1,4-dihydrochromeno[4,3-c]pyrazole-3-carboxamido)ethoxy)-3,5-difluorobenzoic acid], 11 nM.

For the compound `Cc1cccc(CN(CC(=O)Nc2cc(C(=O)O)ccc2F)C(=O)c2nn(C)c3c2COc2ccc(F)cc2-3)c1` [Compound 20, 4-fluoro-3-(2-(8-fluoro-1-methyl-N-(3-methylbenzyl)-1,4-dihydrochromeno[4,3-c]pyrazole-3-carboxamido)acetamido)benzoic acid], the EC50 came to 0.5 nM.

`Cn1nc(C(=O)N(CCNc2cc(C(=O)O)ccc2F)Cc2ccccc2)c2c1-c1cc(F)ccc1OC2` [Compound 71, 3-((2-(N-benzyl-8-fluoro-1-methyl-1,4-dihydrochromeno[4,3-c]pyrazole-3-carboxamido)ethyl)amino)-4-fluorobenzoic acid]: the EC50 stood at 22 nM. In the case of `Cn1nc(C(=O)N(Cc2ccc(C(=O)O)cc2)Cc2cccc(F)c2F)c2c1-c1cc(Cl)ccc1OC2` [Compound 81, 4-((8-chloro-N-(2,3-difluorobenzyl)-1-methyl-1,4-dihydrochromeno[4,3-c]pyrazole-3-carboxamido)methyl)benzoic acid], the EC50 worked out at 21 nM. As to `Cn1nc(C(=O)N(CC(=O)Nc2cc(C(=O)O)ccc2F)Cc2ccccc2F)c2c1-c1cc(Cl)ccc1OC2` [Compound 64, 3-(2-(8-chloro-N-(2-fluorobenzyl)-1-methyl-1,4-dihydrochromeno[4,3-c]pyrazole-3-carboxamido)acetamido)-4-fluorobenzoic Acid], the EC50 turned out to be 0.6 nM. `Cc1cc(Cl)cc2c1OCc1c(C(=O)N(CC(=O)Nc3cccc(C(=O)O)c3)Cc3ccccc3F)nn(C)c1-2` [Compound 14, 3-(2-(8-chloro-N-(2-fluorobenzyl)-1,6-dimethyl-1,4-dihydrochromeno[4,3-c]pyrazole-3-carboxamido)acetamido)benzoic acid]: the EC50 was found to be 0.84 nM. The result for `Cn1nc(C(=O)N(CC(=O)Nc2cc(C(=O)O)ccc2F)Cc2ccccc2)c2c1-c1cc(F)c(F)cc1OC2` [Compound 19, 3-(2-(N-benzyl-7,8-difluoro-1-methyl-1,4-dihydrochromeno[4,3-c]pyrazole-3-carboxamido)acetamido)-4-fluorobenzoic acid] reads 0.5 nM. The result for `Cn1nc(C(=O)N(CCOc2c(F)cc(C(=O)O)cc2F)Cc2ccccc2F)c2c1-c1cc(F)ccc1OC2` [Compound 53, 3,5-difluoro-4-(2-(8-fluoro-N-(2-fluorobenzyl)-1-methyl-1,4-dihydrochromeno[4,3-c]pyrazole-3-carboxamido)ethoxy)benzoic acid] reads 17 nM. For the compound `Cc1cc(F)cc(CN(Cc2ccc(C(=O)O)cc2)C(=O)c2nn(C)c3c2COc2ccc(Cl)cc2-3)c1` [Compound 82, 4-((8-chloro-N-(3-fluoro-5-methylbenzyl)-1-methyl-1,4-dihydrochromeno[4,3-c]pyrazole-3-carboxamido)methyl)benzoic acid], the EC50 came out at 12 nM.

`Cn1nc(C(=O)N(Cc2ccc(C(=O)O)c(F)c2)Cc2ccccc2F)c2c1-c1cc(Cl)ccc1OC2` [Compound 97, 4-((8-chloro-N-(2-fluorobenzyl)-1-methyl-1,4-dihydrochromeno[4,3-c]pyrazole-3-carboxamido)methyl)-2-fluorobenzoic acid]: the EC50 stood at 17 nM. In the case of `Cn1nc(C(=O)N(CC(=O)Nc2cc(C(=O)O)ccc2F)Cc2ccccc2F)c2c1-c1cc(Cl)ccc1OCC2` [Compound 34, 3-(2-(9-chloro-N-(2-fluorobenzyl)-1-methyl-4,5-dihydro-1H-benzo[2,3]oxepino[4,5-c]pyrazole-3-carboxamido)acetamido)-4-fluorobenzoic acid], the EC50 amounted to 2.1 nM. Consider `Cn1nc(C(=O)N(Cc2ccc(C(=O)O)cc2)Cc2cncc(F)c2)c2c1-c1cc(Cl)ccc1OC2` [Compound 88, 4-((8-chloro-N-((5-fluoropyridin-3-yl)methyl)-1-methyl-1,4-dihydrochromeno[4,3-c]pyrazole-3-carboxamido)methyl)benzoic acid], for which the EC50 stood at 15 nM. The value for `Cn1nc(C(=O)N(Cc2ccccc2)Cc2ccc(C(=O)O)cc2F)c2c1-c1cc(F)ccc1OC2` [Compound 79, 4-((N-benzyl-8-fluoro-1-methyl-1,4-dihydrochromeno[4,3-c]pyrazole-3-carboxamido)methyl)-3-fluorobenzoic acid] was 22 nM; that for `Cn1nc(C(=O)N(CCOc2ccc(C(=O)O)cc2C(F)(F)F)Cc2ccccc2F)c2c1-c1cc(Cl)ccc1OC2` [Compound 51, 4-(2-(8-chloro-N-(2-fluorobenzyl)-1-methyl-1,4-dihydrochromeno[4,3-c]pyrazole-3-carboxamido)ethoxy)-3-(trifluoromethyl)benzoic acid] was 9.8 nM.

For the compound `Cn1nc(C(=O)N(CC(=O)Nc2cc(C(=O)O)ccc2F)Cc2ccccc2)c2c1-c1cc(F)ccc1OC2` [Compound 32, 3-(2-(N-benzyl-8-fluoro-1-methyl-1,4-dihydrochromeno[4,3-c]pyrazole-3-carboxamido)acetamido)-4-fluorobenzoic acid], the EC50 was found to be 0.74 nM.
